Data on 1 molecule can be found in patent US12569470B2, “Vasodilator and use thereof” (Bioradical Research Institute Corp., priority 2019, dated 2026).

Type in all cases: cell-based
Data set [1] relates to rat neuroid cells B50. In words: Toxicity evaluation on byproducts after reaction with singlet oxygen. To be noted: byproducts after reaction with singlet oxygen, 50, 100, or 200 μmol/1, FIG. 6. The procedure: In a cell-free system, the RB was added to media (5% FCS-containing RPMI-1640 media) containing edaravone, ED2AP, and BisEp-C3 having a predetermined concentration (50, 100, or 200 μmol/1) and then irradiated with LED (G-LED) at 525 nm to generate singlet oxygen, whereby reacting each compound with singlet oxygen. The cell viability was measured in the same manner as in Example 7(1), except that the culture solution after the reaction was used as a medium of the neuroid cell B50. As a negative control (NC), the cell viability was measured in the same manner except that each compound and […] were not added in the cell-free system. Further, as a control (RB), the cell viability was measured in the same manner except that each compound was not added and only […] was added in the cell-free system.

In data set [2] the test system is rat neuroid cells B50. In words: Toxicity evaluation, cell viability by Alamar Blue. To be noted: 12.5, 25, 50, 100, or 200 μmol/1, 24 hours, FIG. 5. The procedure:
Rat neuroid cells B50 were seeded in 12-well plates and then cultured. Edaravone (RC), ED2AP, or BisEp-C3 was added to each well so as to achieve a predetermined concentration (12.5, 25, 50, 100, or 200 μmol/1), and then incubated for 24 hours at 37° C. and 5% CO2. Cell viability in each well after the culture was measured using Alamar Blue.
Background: Resazurin is reduced to fluorescent resorufin, in cell work by metabolically active cells.

The test system of data set [3] is rat neuroid cells B50. In words: Cytoprotection against singlet oxygen (Rose Bengal + G-LED), Alamar Blue fluorescence. To be noted: 0, 12.5, 25, 50, or 100 μmol/1, RB 200 nmol/1 + G-LED 5 minutes, negative control being 100, FIG. 3. How it is done: Edaravone, ED2AP and BisEp-C3 were examined for whether they had the function of alleviating neuronopathy. Specifically, singlet oxygen was generated by combining Rose Bengal (RB), which is a sensitizer, with green light (G-LED), and the function of alleviating the cytotoxicity of the generated singlet oxygen was examined with the cellular activity being an indicator.
First, rat neuroid cells B50 were cultured in 12-well dishes at 2×10^5 cells/well (medium: RPMI-1640 medium containing 5% FCS) overnight. After the culturing, the medium of each well was replaced with HBSS (1,000 μl/well; phenol red-free Ca+, Mg+) containing 200 nmol/1 RB and edaravone, ED2AP, or BisEp-C3 having a predetermined concentration (0, 12.5, 25, 50, or 100 μmol/1). The dish was then irradiated with G-LED for 5 minutes to generate singlet oxygen. Thereafter, the medium of each well was replaced with 1,000 μl of HBSS, and Alamar Blue was added. The dish was then allowed to react for about 2 hours in an incubator at 37° C. and 5%CO2. After the reaction, fluorescence intensity (excitation wavelength: λ- 560 nm, fluorescence wavelength: λ-595 nm) was measured with a plate reader (infinite200, Tecan Trading AG). In this experimental system, the higher the cellular activity, the more Alamar Blue is taken up and the higher the fluorescence intensity. As a control, fluorescence intensity was measured in the same manner except that sodium azide (Azide, NaN3) was added instead of the compounds so as to achieve a concentration of 4 mmol/1. As a negative control (NC), fluorescence intensity was measured in the same manner except that RB was not added. The relative value of the fluorescence intensity in the sample to which each compound was added was calculated with the fluorescence intensity of the negative control being 100.

Structures are written as SMILES.

For the molecule `CC1=NN(c2ccccc2)C(=O)C1` [Edaravone, 3-methyl-1-phenyl-5-pyrazolone, reference compound], the “cell viability (cytotoxicity of byproducts)” value in the data set on rat neuroid cells B50 [1] is on record as “not cytotoxic at any concentration”. The “cell viability (cytotoxicity)” value in the data set with rat neuroid cells B50 [2] was “not cytotoxic at any concentration”. Besides, the “relative value of the fluorescence intensity” value with rat neuroid cells B50 [3] is “not recovered”.
